Results on four molecules are retold here after patent US20120230974A1, “ALKALINE ALPHA GALACTOSIDASE FOR THE TREATMENT OF FABRY DISEASE” (PROTALIX LTD, priority 2009, published 2012).

Data set [1] can be described thus: In vitro hydrolysis of Gb3-NBD by alpha galactosidases from different sources under various pH conditions (TLC). The format is biochemical. To be noted: phosphate buffer pH 6.5, 60 min 37° C., a-Gal 50 ug/ml. The method, then: Green Coffee Bean-GCB a-Gal (Sigma #G8507)
Plant recombinant human alpha galactosidase was produced as described in WO2008/132743 (alpha-Gal-KDEL).
Commercial recombinant human alpha galactosidase (Replagal, Shire)
The following protocol was used for NBD-Gb3 hydrolysis:
90 μl activity buffer [citrate phosphate pH=4.6; phosphate buffer pH=6.5
10 μl of NBD-Gb3 0.35 ug/ul in Ethanol [35 ug/ml in reaction]
5 μl of a-Gal 1 mg/ml [50 ug/ml in reaction]
Incubation for 60 min in 37° C.
100 μl chloroform were added followed by vortex
50 μl methanol were added followed by vortex
Injection on TLC silica-60 plate, Chloroform: methanol: H2O [100:42:6] as mobile phase.

Data set [2] can be described thus: Activity assay with NBD-Gb3 in PBS pH 7.4 (HP-TLC). The class given is biochemical. The procedure:
a-Gals: prh-alpha galactosidase, GCB a-Gal (endogenous green coffee bean).
80 μl PBS (sigma), pH=7.4
10 μl of NBD-Gb3 0.1 μg/ul in Ethanol [10 ug/ml in reaction]
10 μl of a-Gal 1 mg/ml [100 μg/ml in reaction]
Incubated for 60 min in 37° C.
150 μl chloroform: methanol (2:1) were added followed by vortex the lower phase pulled out speed-vac was effected to complete evaporation and the pellet dissolved in 50 μl Chloroform: methanol [1:1] All samples were injected on HP-TLC silica-60 plate [40 ul ]
Chloroform: methanol: H2O [100:42:6].

Data set [3] in a line: Biodistribution of fluorescent Gb3 in WT and Fabry mice. The format is in vivo. From the text: For testing the hypothesis that circulating Gb3 can reach and accumulate in organs, organ uptake and biodistribution of fluorescent Gb3 (N-Dodecanoyl-NBD-ceramide trihexoside) in wild type (WT) and Fabry mice were effected.
Animals: Mice: Fabry mice and WT mice
Group Size: total 12 male mice, n=2
Materials: fluorescent Gb3 (N-Dodecanoyl-NBD-ceramide trihexoside; Catalog #: 1631, Matreya Pa. 16823 USA
Jackson B6J129Gla α-galactosidase-A-deficient mice (“Fabry mice”) were purchased from Jackson Laboratories. These mice are characterized by being totally deficient in α-Galactosidase-A activity and progressively accumulate Gb3 in both plasma and in the lysosomes of most tissues (in particular, the liver, spleen, heart, skin, and kidneys). In addition, these mice have no clinical disease phenotype and survive a normal laboratory life span (>2 years). Hemizygous affected males were bred to homozygous affected females, thereby providing only affected offspring. For these studies, all mice were affected adult males 12 to 30 weeks of age at study initiation.
Administration: IV injection, tail vein.
Gb3-NBD was injected to wild type and Fabry mice. Blood was collected 1 hour and 24 hours following injection and plasma was prepared using accepted methods. Gb3-NBD levels were determined using Fluorescent Elisa reader (Infinite M200; Tecan, Switzerland), subtracting basal fluorescent levels plasma of control mice injected with saline.
Gb3 presence was also detected with HP TLC (CAMAG, Switzerland)
Organs (liver, kidney heart and spleen) were collected from the mice of the experiment described above, and Gb3-NBD levels were determined by fluorescence detector and HPTLC as described. As the experiment was initial, low levels of Injected Gb3 NBD were given.

The conditions of data set [4]: clinical studies; cited from earlier work.

For the molecule “Green coffee bean alpha gal: Endogenous green coffee bean alpha galactosidase (Sigma #G8507)”, the “Hydrolysis of Gb3-NBD to lactosylceramide-NBD” value in data set [1] is “can hydrolyze NBD-Gb3”. Also, the “Activity compared with plant recombinant human alpha Gal (upshift of band)” value in data set [2] (PBS pH 7.4) was “works better”. The “Enzymatic activity on NBD-Gb3 under neutral to basic pH” value in data set [2] (PBS pH 7.4, 60 min 37° C., a-Gal 100 μg/ml, HP-TLC) is reported as “demonstrate enzymatic activity”. Also, in data set [2] (pH 7.4 vs acidic conditions of FIG. 3), the “Activity under alkaline pH compared with the acidic conditions of FIG. 3” value is “more active under alkaline pH conditions”.
As to “N-Dodecanoyl-NBD-ceramide trihexoside [Gb3-NBD]”, in data set [3] (24 hours following iv injection, 320 ug/kg, WT and Fabry mice), the “Gb3-NBD levels in plasma (fluorescence)” value is recorded as “fluorescence only in Fabry mice”. Besides, in data set [3] (iv 320 ug/kg, fluorescence detector), the “Gb3-NBD fluorescent levels in plasma and organs (liver, kidney, heart, spleen)” value is “only detectable in Plasma (FIG. 5) and Liver”. For the same molecule, the “Gb3-NBD bands in organs by HPTLC” value in data set [3] (iv 320 ug/kg, inconclusive due to high background) was “only in Fabry mice”.

B1: Replagal: Commercial recombinant human alpha galactosidase (Replagal, Shire) (protein, UniProt P06280 32-429, looked up)
Alpha-galactosidase A: LDNGLARTPTMGWLHWERFMCNLDCQEEPDSCISEKLFMEMAELMVSEGWKDAGYEYLCIDDCWMAPQRDSEGRLQADPQRFPHGIRQLANYVHSKGLKLGIYADVGNKTCAGFPGSFGYYDIDAQTFADWGVDLLKFDGCYCDSLENLADGYKHMSLALNRTGRSIVYSCEWPLYMWPFQKPNYTEIRQYCNHWRNFADIDDSWKSIKSILDWTSFNQERIVDVAGPGGWNDPDMLVIGNFGLSWNQQVTQMALWAIMAAPLFMSNDLRHISPQAKALLQDKDVIAINQDPLGKQGYQLRQGDNFEVWERPLSGLAWAVAMINRQEIGGPRSYTIAVASLGKGVACNPACFITQLLPVKRKLGFYEWTSRLRSHINPTGTVLLQLENTMQMSLKDLL
modifications: agalsidase alfa
For B1, the “Hydrolysis of Gb3-NBD to lactosylceramide-NBD” value in data set [1] is “can partially hydrolyze Gb3”. For the same molecule, in data set [4], the “Clearance of Gb3 from plasma, kidney cells, capillary endothelial cells of heart and skin” value is listed as “proven efficacious”.

B2: Fabrazyme: Recombinant form of human α-galactosidase A (agalsidase beta, Genzyme) (protein, UniProt P06280 32-429, looked up)
Alpha-galactosidase A: B1 Alpha-galactosidase A
modifications: agalsidase beta
As to B2, the “Clearance of Gb3 from plasma, kidney cells, capillary endothelial cells of heart and skin” value in data set [4] was “proven efficacious”.
